# Source: ChEMBL document CHEMBL1141332, “Cytotoxic metabolites from an Indonesian sponge Lendenfeldia sp” (J Nat Prod, 2007)
# Columns and labels:
# Assay type in all cases: functional
# HL-60 = assay: Cytotoxicity against human HL60 cells; conditions: Homo sapiens, HL-60
# K562 = assay: Cytotoxicity against human K562 cells
# MOLT-4 = assay: Cytotoxicity against human MOLT4 cells
# RPMI-8226 = assay: Cytotoxicity against human RPMI8226 cells
# A549 = assay: Cytotoxicity against human A549 cells
# HOP-62 = assay: Cytotoxicity against human HOP62 cells
# HOP-92 = assay: Cytotoxicity against human HOP92 cells
# NCI-H226 = assay: Cytotoxicity against human NCI-H226 cells
# NCI-H23 = assay: Cytotoxicity against human NCI-H23 cells
# NCI-H322M = assay: Cytotoxicity against human NCI-H322M cells
# NCI-H460 = assay: Cytotoxicity against human NCI-H460 cells
# NCI-H522 = assay: Cytotoxicity against human NCI-H522 cells
# LOX IMVI = assay: Cytotoxicity against human LOX IMVI cells
# COLO 205 = assay: Cytotoxicity against human COLO205 cells
# HCC 2998 = assay: Cytotoxicity against human HCC2998 cells
# HCT-116 = assay: Cytotoxicity against human HCT116 cells
# HCT-15 = assay: Cytotoxicity against human HCT15 cells
# HT-29 = assay: Cytotoxicity against human HT29 cells
# KM12 = assay: Cytotoxicity against human KM12 cells
# SF-268 = assay: Cytotoxicity against human SF268 cells
# SF-539 = assay: Cytotoxicity against human SF539 cells
# SNB-19 = assay: Cytotoxicity against human SNB19 cells; conditions: read-out: Log LC50 (the source's name) (converted)
# SNB-75 = assay: Cytotoxicity against human SNB75 cells
# U-251 = assay: Cytotoxicity against human U251cells
# SK-MEL-28 = assay: Cytotoxicity against human SK-MEL-28 cells
# UACC-257 = assay: Cytotoxicity against human UACC257 cells
# UACC-62 = assay: Cytotoxicity against human UACC62 cells
# IGROV-1 = assay: Cytotoxicity against human IGROV1 cells
# OVCAR-3 = assay: Cytotoxicity against human OVCAR-3 cells
# OVCAR-4 = assay: Cytotoxicity against human OVCAR4 cells
# OVCAR-5 = assay: Cytotoxicity against human OVCAR5 cells
# OVCAR-8 = assay: Cytotoxicity against human OVCAR8 cells
# SK-OV-3 = assay: Cytotoxicity against human SK-OV-3 cells
# 786-0 = assay: Cytotoxicity against human 786-0 cells
# SN12C = assay: Cytotoxicity against human SN12C cells
# TK-10 = assay: Cytotoxicity against human TK10 cells
# PC-3 = assay: Cytotoxicity against human PC3 cells
# DU-145 = assay: Cytotoxicity against human DU145 cells
# MCF7 = assay: Cytotoxicity against human MCF7 cells
# NCI/ADR-RES = assay: Cytotoxicity against human NCI/ADR-RES cells
# MDA-MB-231 = assay: Cytotoxicity against human MDA-MB-231 cells
# [1] = Cytotoxicity against human HS578T cells; conditions: Hs-578T
# MDA-MB-435 = assay: Cytotoxicity against human MDA-MB-435 cells
# BT-549 = assay: Cytotoxicity against human BT549 cells
# T47D = assay: Cytotoxicity against human T47D cells
# [2] = read-out: Log LC50 (the source's name) (converted)
structure (smiles),measurement,setting,value
CC1OC(=O)[C@H]2[C@H]1[C@@H](O)C[C@H]1[C@]3(C)CC[C@H]4C(C)(C)CCC[C@]4(C)[C@H]3C[C@@H](O)[C@]21C (stereo partly drawn),GI50,HL-60,11.7 µM
same,CC50,HL-60; [2],> 100 µM
same,TGI,HL-60; read-out: Log TGI (converted),36.3 µM
same,GI50,K562,29.5 µM
same,CC50,K562; [2],> 100 µM
same,TGI,K562; read-out: Log TGI (converted),55 µM
same,GI50,MOLT-4,4.79 µM
same,CC50,MOLT-4; [2],> 100 µM
same,TGI,MOLT-4; read-out: Log TGI (converted),20.9 µM
same,GI50,RPMI-8226,16.2 µM
same,CC50,RPMI-8226; [2],> 100 µM
same,TGI,RPMI-8226; read-out: Log TGI (converted),51.3 µM
same,GI50,A549,15.8 µM
same,CC50,A549; [2],89.1 µM
same,TGI,A549; read-out: Log TGI (converted),37.2 µM
same,GI50,HOP-62,15.1 µM
same,CC50,HOP-62; [2],55 µM
same,TGI,HOP-62; read-out: Log TGI (converted),28.8 µM
same,GI50,HOP-92,17 µM
same,CC50,HOP-92; [2],93.3 µM
same,TGI,HOP-92; read-out: Log TGI (converted),39.8 µM
same,GI50,NCI-H226,20 µM
same,CC50,NCI-H226; [2],87.1 µM
same,TGI,NCI-H226; read-out: Log TGI (converted),41.7 µM
same,GI50,NCI-H23,20.4 µM
same,CC50,NCI-H23; [2],67.6 µM
same,TGI,NCI-H23; read-out: Log TGI (converted),37.2 µM
same,GI50,NCI-H322M,31.6 µM
same,CC50,NCI-H322M; [2],> 100 µM
same,TGI,NCI-H322M; read-out: Log TGI (converted),93.3 µM
same,GI50,NCI-H460,20.9 µM
same,CC50,NCI-H460; [2],89.1 µM
same,TGI,NCI-H460; read-out: Log TGI (converted),42.7 µM
same,GI50,NCI-H522,19.5 µM
same,CC50,NCI-H522; [2],77.6 µM
same,TGI,NCI-H522; read-out: Log TGI (converted),38.9 µM
same,GI50,LOX IMVI,17.4 µM
same,CC50,LOX IMVI; [2],56.2 µM
same,TGI,LOX IMVI; read-out: Log TGI (converted),30.9 µM
same,GI50,COLO 205,15.8 µM
same,CC50,COLO 205; [2],66.1 µM
same,TGI,COLO 205; read-out: Log TGI (converted),32.4 µM
same,GI50,HCC 2998,15.5 µM
same,CC50,HCC 2998; [2],56.2 µM
same,TGI,HCC 2998; read-out: Log TGI (converted),29.5 µM
same,GI50,HCT-116,11.2 µM
same,CC50,HCT-116; [2],47.9 µM
same,TGI,HCT-116; read-out: Log TGI (converted),23.4 µM
same,GI50,HCT-15,16.2 µM
same,CC50,HCT-15; [2],60.3 µM
same,TGI,HCT-15; read-out: Log TGI (converted),31.6 µM
same,GI50,HT-29,17.4 µM
same,CC50,HT-29; [2],83.2 µM
same,TGI,HT-29; read-out: Log TGI (converted),38 µM
same,GI50,KM12,25.1 µM
same,CC50,KM12; [2],> 100 µM
same,TGI,KM12; read-out: Log TGI (converted),69.2 µM
same,GI50,SF-268,22.4 µM
same,CC50,SF-268; [2],> 100 µM
same,TGI,SF-268; read-out: Log TGI (converted),49 µM
same,GI50,SF-539,19.1 µM
same,CC50,SF-539; [2],67.6 µM
same,TGI,SF-539; read-out: Log TGI (converted),36.3 µM
same,CC50,SNB-19,17 µM
same,GI50,SNB-75,20 µM
same,CC50,SNB-75; [2],> 100 µM
same,TGI,SNB-75; read-out: Log TGI (converted),47.9 µM
same,GI50,U-251,17 µM
same,CC50,U-251; [2],61.7 µM
same,TGI,U-251; read-out: Log TGI (converted),32.4 µM
same,GI50,SK-MEL-28,20 µM
same,CC50,SK-MEL-28; [2],66.1 µM
same,TGI,SK-MEL-28; read-out: Log TGI (converted),36.3 µM
same,GI50,UACC-257,28.2 µM
same,CC50,UACC-257; [2],> 100 µM
same,TGI,UACC-257; read-out: Log TGI (converted),83.2 µM
same,GI50,UACC-62,19.5 µM
same,CC50,UACC-62; [2],97.7 µM
same,TGI,UACC-62; read-out: Log TGI (converted),43.7 µM
same,GI50,IGROV-1,30.9 µM
same,CC50,IGROV-1; [2],> 100 µM
same,TGI,IGROV-1; read-out: Log TGI (converted),81.3 µM
same,GI50,OVCAR-3,11.5 µM
same,CC50,OVCAR-3; [2],60.3 µM
same,TGI,OVCAR-3; read-out: Log TGI (converted),26.3 µM
same,GI50,OVCAR-4,20.9 µM
same,CC50,OVCAR-4; [2],> 100 µM
same,TGI,OVCAR-4; read-out: Log TGI (converted),60.3 µM
same,GI50,OVCAR-5,20.9 µM
same,CC50,OVCAR-5; [2],75.9 µM
same,TGI,OVCAR-5; read-out: Log TGI (converted),39.8 µM
same,GI50,OVCAR-8,25.1 µM
same,CC50,OVCAR-8; [2],> 100 µM
same,TGI,OVCAR-8; read-out: Log TGI (converted),63.1 µM
same,GI50,SK-OV-3,38.9 µM
same,CC50,SK-OV-3; [2],> 100 µM
same,TGI,SK-OV-3; read-out: Log TGI (converted),> 100 µM
same,GI50,786-0,15.8 µM
same,CC50,786-0; [2],56.2 µM
same,TGI,786-0; read-out: Log TGI (converted),30.2 µM
same,GI50,SN12C,17.4 µM
same,LC50,SN12C,> 100 µM
same,TGI,SN12C; read-out: Log TGI (converted),46.8 µM
same,GI50,TK-10,30.2 µM
same,LC50,TK-10,> 100 µM
same,TGI,TK-10; read-out: Log TGI (converted),79.4 µM
same,GI50,PC-3,17 µM
same,LC50,PC-3,> 100 µM
same,TGI,PC-3; read-out: Log TGI (converted),55 µM
same,GI50,DU-145,17 µM
same,LC50,DU-145,72.4 µM
same,TGI,DU-145; read-out: Log TGI (converted),34.7 µM
same,GI50,MCF7,34.7 µM
same,LC50,MCF7,> 100 µM
same,TGI,MCF7; read-out: Log TGI (converted),> 100 µM
same,GI50,NCI/ADR-RES,18.6 µM
same,LC50,NCI/ADR-RES,83.2 µM
same,TGI,NCI/ADR-RES; read-out: Log TGI (converted),39.8 µM
same,GI50,MDA-MB-231,19.1 µM
same,LC50,MDA-MB-231,87.1 µM
same,TGI,MDA-MB-231; read-out: Log TGI (converted),40.7 µM
same,GI50,[1],19.1 µM
same,LC50,[1],> 100 µM
same,TGI,[1]; read-out: Log TGI (converted),53.7 µM
same,GI50,MDA-MB-435,19.1 µM
same,LC50,MDA-MB-435,> 100 µM
same,TGI,MDA-MB-435; read-out: Log TGI (converted),51.3 µM
same,GI50,BT-549,17 µM
same,LC50,BT-549,64.6 µM
same,TGI,BT-549; read-out: Log TGI (converted),33.1 µM
same,GI50,T47D,24.5 µM
same,LC50,T47D,> 100 µM
same,TGI,T47D; read-out: Log TGI (converted),63.1 µM
